Results reported in ChEMBL document CHEMBL1128859, “Cmi-206: A potent dual platelet activating factor antagonist and 5-lipoxygenase inhibitor” (Bioorg Med Chem Lett, 1995).

How the values were obtained:
[1] = target: Platelet-activating factor receptor (Homo sapiens, UniProt P25105); assay: In vitro affinity for human PAF receptor on platelet membranes using [3H]PAF displacement.
[2] = target: T1, Polyunsaturated fatty acid 5-lipoxygenase (Rattus norvegicus, UniProt P12527); assay: In vitro inhibition of 5-lipoxygenase in RBL-2H3 (Rat basophilic leukemia) cells.; format: functional, cell-based
T1 sequence (P12527 whole entry): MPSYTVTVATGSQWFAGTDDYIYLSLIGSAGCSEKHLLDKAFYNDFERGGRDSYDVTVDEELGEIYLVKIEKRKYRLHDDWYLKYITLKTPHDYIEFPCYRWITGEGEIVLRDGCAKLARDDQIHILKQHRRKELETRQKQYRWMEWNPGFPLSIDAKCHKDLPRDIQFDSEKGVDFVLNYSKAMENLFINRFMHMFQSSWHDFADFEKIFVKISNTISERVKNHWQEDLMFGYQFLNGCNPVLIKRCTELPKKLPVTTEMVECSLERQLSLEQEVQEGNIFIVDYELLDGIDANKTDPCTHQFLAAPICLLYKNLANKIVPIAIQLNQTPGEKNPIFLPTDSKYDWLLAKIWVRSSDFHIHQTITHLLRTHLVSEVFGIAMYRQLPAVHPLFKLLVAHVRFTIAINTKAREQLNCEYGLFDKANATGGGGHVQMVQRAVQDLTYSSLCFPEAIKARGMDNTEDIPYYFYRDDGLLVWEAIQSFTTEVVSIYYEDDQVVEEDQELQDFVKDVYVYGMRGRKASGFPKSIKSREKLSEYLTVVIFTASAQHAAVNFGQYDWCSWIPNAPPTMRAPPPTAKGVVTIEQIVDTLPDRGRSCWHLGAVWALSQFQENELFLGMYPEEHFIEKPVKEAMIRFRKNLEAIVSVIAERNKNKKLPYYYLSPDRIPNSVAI

[3] = tested on: Mus musculus; assay: Ability to antagonize PAF-induced hemoconcentration PAF HTc in mice at a dose of 3 mg/kg; format: functional
[4] = organism: Homo sapiens; assay: Inhibition of human whole blood (HWB) LTB4 production in A-23,187-activated human whole blood by the enzyme immunoassay at a dose of 3 uM; format: functional
[5] = tested on: Mus musculus; assay: Arachidonic acid (AA)-induced ear edema in mice was determined by topically applying AA to ears of mice; format: functional
[6] = organism: Homo sapiens; assay: Inhibition of human whole blood (HWB) LTB4 production in A-23,187-activated human whole blood by the enzyme immunoassay; format: functional
[7] = tested on: Rattus norvegicus; assay: Concentration of LTB4 was determined by enzyme immunoassay (Ex vivo) rat whole blood after intravenous administration of 5 mg/Kg; format: functional

Chain of Platelet-activating factor receptor (P25105 whole entry): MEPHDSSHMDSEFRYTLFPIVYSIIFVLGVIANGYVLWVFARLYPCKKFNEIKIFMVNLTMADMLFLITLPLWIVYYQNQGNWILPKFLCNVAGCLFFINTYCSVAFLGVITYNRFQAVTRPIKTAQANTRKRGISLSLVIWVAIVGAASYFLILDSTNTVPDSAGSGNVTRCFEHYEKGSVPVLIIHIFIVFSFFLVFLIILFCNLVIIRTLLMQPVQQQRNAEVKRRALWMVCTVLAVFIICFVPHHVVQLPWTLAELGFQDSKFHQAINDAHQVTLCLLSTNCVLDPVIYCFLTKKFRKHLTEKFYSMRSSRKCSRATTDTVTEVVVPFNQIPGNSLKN

| Compound | IC50 [1] | IC50 [2] | also measured |
| --- | --- | --- | --- |
| CCCOc1cc([C@H]2CC[C@H](c3cc(OC)c(OC)c(OC)c3)O2)cc(N(CC)C(=O)N(O)CCC)c1OCCC | 56 nM | – | – |
| CCCNC(=O)N(O)c1cc([C@H]2CC[C@H](c3cc(OC)c(OC)c(OC)c3)O2)cc(OCCC)c1OCCC | 91 nM | 3000 nM | – |
| CCCOc1cc([C@H]2CC[C@H](c3cc(OC)c(OC)c(OC)c3)O2)cc(N(O)C(=O)NCC)c1OCCC | 59 nM | – | – |
| CCCOc1cc([C@H]2CC[C@H](c3cc(OC)c(OC)c(OC)c3)O2)cc(N(CC)C(=O)N(O)CC)c1OCCC | 17 nM | 1340 nM | – |
| CCCOc1c(NC(=O)N(O)C(C)CC)cc(C2CCC(c3cc(OC)c(OC)c(OC)c3)O2)cc1OC (cis isomer) | 1610 nM | 450 nM | – |
| CCCOc1c(NC(=O)N(C)O)cc(C2CCC(c3cc(OC)c(OC)c(OC)c3)O2)cc1OC (cis isomer) | 514 nM | – | – |
| CCCCN(O)C(=O)Nc1cc(C2CCC(c3cc(OC)c(OC)c(OC)c3)O2)cc(OC)c1OCCC (cis isomer) | 1310 nM | 500 nM | – |
| CCCCN(O)C(=O)Nc1cc(C2CCC(c3cc(OC)c(OC)c(OC)c3)O2)cc(OC)c1OCCC (stereo in doubt) | 33 nM | 420 nM | inhibition in vivo at 3 mg/kg [3]: 31%; inhibition at 3 µM [4]: 64%; Inhibition [5]: 60%; IC50 [6]: 1680 nM; inhibition in vivo at 5 mg/kg [7]: 67% |
| CCCOc1c(NC(=O)N(O)C(C)(C)C)cc(C2CCC(c3cc(OC)c(OC)c(OC)c3)O2)cc1OC (trans isomer) | 26 nM | 2900 nM | – |
| CCCOc1c(NC(=O)N(O)C(C)C)cc(C2CCC(c3cc(OC)c(OC)c(OC)c3)O2)cc1OC (trans isomer) | 58 nM | 3000 nM | – |
| CCCOc1c(NC(=O)N(O)Cc2ccccc2)cc(C2CCC(c3cc(OC)c(OC)c(OC)c3)O2)cc1OC (trans isomer) | 423 nM | 2240 nM | – |
| CCCOc1c(NC(=O)N(O)CCC)cc(C2CCC(c3cc(OC)c(OC)c(OC)c3)O2)cc1OC (trans isomer) | – | – | IC50 ([2]; rbl-2h3): 10000 nM |
| CCCOc1c(NC(=O)NO)cc(C2CCC(c3cc(OC)c(OC)c(OC)c3)O2)cc1OC (trans isomer) | 30 nM | – | – |
| CCCOc1c(NC(=O)N(C)O)cc(C2CCC(c3cc(OC)c(OC)c(OC)c3)O2)cc1OC (trans isomer) | 17 nM | 630 nM | – |
| CCCOc1c(NC(=O)N(O)CC)cc(C2CCC(c3cc(OC)c(OC)c(OC)c3)O2)cc1OC (trans isomer) | 8 nM | 150 nM | inhibition in vivo at 3 mg/kg [3]: 58%; inhibition at 3 µM [4]: 23% |
| CC(c1cc2ccccc2s1)N(O)C(N)=O (stereo not given) [ZILEUTON] | – | – | inhibition at 3 µM [4]: 75% |

Continued, in another order:

| IC50 [1] | IC50 [2] | Compound | also measured |
| --- | --- | --- | --- |
| 68 nM | 3070 nM | CCCOc1cc([C@H]2CC[C@H](c3cc(OC)c(OC)c(OC)c3)O2)cc(N(CC)C(=O)N(C)O)c1OCCC | – |
| 456 nM | – | CCCOc1c(NC(=O)N(O)C(C)(C)C)cc(C2CCC(c3cc(OC)c(OC)c(OC)c3)O2)cc1OC (cis isomer) | – |
| 1000 nM | 2540 nM | CCCOc1c(NC(=O)N(O)C2CCCCC2)cc(C2CCC(c3cc(OC)c(OC)c(OC)c3)O2)cc1OC (cis isomer) | – |
| 585 nM | 8000 nM | CCCOc1c(NC(=O)N(O)Cc2ccccc2)cc(C2CCC(c3cc(OC)c(OC)c(OC)c3)O2)cc1OC (cis isomer) | – |
| 858 nM | 2830 nM | CCCOc1c(NC(=O)N(O)C(C)C)cc(C2CCC(c3cc(OC)c(OC)c(OC)c3)O2)cc1OC (stereo in doubt) | – |
| – | 10000 nM | CCCOc1c(NC(=O)N(O)CCC)cc(C2CCC(c3cc(OC)c(OC)c(OC)c3)O2)cc1OC (stereo in doubt) | – |
| 300 nM | – | CCCOc1c(NC(=O)NO)cc(C2CCC(c3cc(OC)c(OC)c(OC)c3)O2)cc1OC (stereo in doubt) | – |
| 383 nM | 3000 nM | CCCOc1c(NC(=O)N(O)CC)cc(C2CCC(c3cc(OC)c(OC)c(OC)c3)O2)cc1OC (stereo in doubt) | – |
| 278 nM | – | CCCOc1c(NC(=O)N(O)C2CCCCC2)cc(C2CCC(c3cc(OC)c(OC)c(OC)c3)O2)cc1OC (trans isomer) | – |
| 25 nM | 600 nM | CCCOc1c(NC(=O)N(O)C(C)CC)cc(C2CCC(c3cc(OC)c(OC)c(OC)c3)O2)cc1OC (trans isomer) | inhibition at 3 µM [4]: 57% |
